The source of these data is patent publication US20240360194A1, “New Peptides as Potent and Selective GIP Receptor Agonists” (Sanofi, priority 2021, published 2024).

Series [1] is described as follows: Pharmacokinetic evaluation in rats. It is filed as in vivo. The settings on record: male, SD, rat, in vivo. The procedure:
(§1) Compounds were administered in a suitable buffer system, e.g. PBS buffer solution at pH7.4 or DPBS solution at concentrations of 0.05, 0.1, 0.5 or 1 mg/ml depending on dose, species and administration volume. Male SD rats were dosed 0.25 mg/kg, 0.5 mg/kg or 1 mg/kg intravenously (i.v.) or subcutaneously (s.c.). Blood samples were collected after 0.08, 0.25, 0.5, 1, 2, 4, 8, 24, 32, and 48 h post i.v. application and 0.25, 0.5, 1, 2, 4, 8, 24, 32, and 48 h post s.c. application, respectively. Plasma samples were analysed after protein precipitation via liquid chromatography mass spectrometry (LC/MS). PK parameters and half-life were calculated using Phoenix-WinNonlin 8.1 using a non-compartmental model and linear trapezoidal interpolation calculation. Pharmacokinetic profiles were determined as described in Methods.

The nature of series [2]: Chemical stability assessment (UHPLC-UV purity loss on storage in solution). In kind it is physicochemical. The settings on record: Chemical stability buffer system A: 20 mM phosphate buffer pH 7.4; ~300 μM. The procedure:
Purity of a peptide batch was determined through UHPLC/MS prior to chemical stability measurement. The target concentration was 300 μM pure compound. Solutions from solid samples were prepared in the following buffer systems with a concentration of ˜300 μM compound based on the previously determined % purity: • Chemical stability buffer system A) 20 mM phosphate buffer pH 7.4, • Chemical stability buffer system B) 8 mM phosphate buffer pH 7.4, 14 mg/ml propylene glycol, 5.5 mg/ml phenol • Chemical stability buffer system C) 100 mM phosphate buffer pH 7.4, 2.7 mg/ml m-cresol
Prepared solutions were filtered through […] pore size and filled into sterilized glass containers under laminar flow conditions.
Glass containers were stored for 28 days at 5 and 40° C. After this time, the samples were centrifuged for 15 min at 2500 RCF. Then 1.5 μl of the undiluted supernatant were analysed with UHPLC-UV.
The chemical stability was rated through the relative loss of purity calculated by the equation: […]
The purity is calculated as
The analytical methods used were Analytical UHPLC Method B or C.
Peptide samples were prepared in Chemical stability buffer system A or B and stability was assessed as described in Methods.

Series [3] concerns the target human GLP-1 receptor (hGLP-1R) (Homo sapiens, UniProt P43220). The experiment in a line: In vitro cellular cAMP assay for GLP-1 receptor efficacy (HEK-293 cell line over-expressing receptor). Conditions: HEK-293, 0.1% BSA. It is filed as cell-based.
Series [4] addresses T1, human GIP receptor (hGIPR) (Homo sapiens, UniProt P48546).
T1 sequence (P48546 22-466): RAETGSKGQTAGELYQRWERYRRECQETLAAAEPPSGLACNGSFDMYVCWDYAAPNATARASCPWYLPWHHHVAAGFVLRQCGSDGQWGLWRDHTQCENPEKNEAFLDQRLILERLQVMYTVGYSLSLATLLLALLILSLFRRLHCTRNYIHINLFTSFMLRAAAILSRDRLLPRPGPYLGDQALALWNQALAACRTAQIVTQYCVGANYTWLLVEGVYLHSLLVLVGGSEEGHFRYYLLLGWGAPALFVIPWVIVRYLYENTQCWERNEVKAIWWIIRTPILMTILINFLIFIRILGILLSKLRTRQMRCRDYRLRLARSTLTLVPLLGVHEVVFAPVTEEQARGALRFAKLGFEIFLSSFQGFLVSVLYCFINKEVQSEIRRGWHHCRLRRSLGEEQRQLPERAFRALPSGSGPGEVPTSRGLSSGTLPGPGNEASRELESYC
The experiment in a line: In vitro cellular cAMP assay for GIP receptor efficacy (HEK-293 cell line over-expressing receptor). In kind it is cell-based. Conditions: EC50 hGIPR 0.1% BSA, HEK-293, 0.1% BSA.

Series [5] in a line: Pharmacokinetic evaluation in mice. It is filed as in vivo, female C57Bl/6 mice. The settings on record: in vivo. Here is the method: as §1, with “Female C57Bl/6 mice” for “Male SD rats”, “The mice were sacrificed, and blood” for “Blood”
Series [6] is described as follows: Solubility assessment (UHPLC-UV of supernatant, target 10 mg/ml). In kind it is physicochemical. The gist of the method: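 Peptides at 10 mg/ml (purity-corrected) in 100 mM phosphate pH 7.4, optionally with 2.7 mg/ml m-cresol; gentle agitation 1 h, then 5° C. overnight (24 h). Supernatant after 15 min centrifugation at 2500 RCF quantified by UHPLC-UV, with sequence-based extinction coefficients.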

Where [7] appears, read: female, C57Bl/6, mouse, iv, 0.25 mg/kg.
The mark [8] stands for this setting: female, C57Bl/6, mouse, sc, 0.5 mg/kg.

≈ marks a conversion by molar mass, not a printed value. Numbered stars: 1 amine (or outer) side, 2 acyl side, 3 side chain; on linkers, the order of the positions; unused ones are H or OH. Square brackets hold non-standard residues; d marks the D form. Side chains are listed from the residue outwards. Peptide text beside a SMILES is read from it. * marks the point of attachment. C18 diacid = O=C(O)CCCCCCCCCCCCCCCCC(=O)*; γGlu = O=C(O)[C@H](CCC(=O)[*:2])N[*:1]; AEEA = NCCOCCOCC(=O)O; Aib = CC(C)(N)C(=O)O

Chain of human GLP-1 receptor (hGLP-1R) (P43220 24-463): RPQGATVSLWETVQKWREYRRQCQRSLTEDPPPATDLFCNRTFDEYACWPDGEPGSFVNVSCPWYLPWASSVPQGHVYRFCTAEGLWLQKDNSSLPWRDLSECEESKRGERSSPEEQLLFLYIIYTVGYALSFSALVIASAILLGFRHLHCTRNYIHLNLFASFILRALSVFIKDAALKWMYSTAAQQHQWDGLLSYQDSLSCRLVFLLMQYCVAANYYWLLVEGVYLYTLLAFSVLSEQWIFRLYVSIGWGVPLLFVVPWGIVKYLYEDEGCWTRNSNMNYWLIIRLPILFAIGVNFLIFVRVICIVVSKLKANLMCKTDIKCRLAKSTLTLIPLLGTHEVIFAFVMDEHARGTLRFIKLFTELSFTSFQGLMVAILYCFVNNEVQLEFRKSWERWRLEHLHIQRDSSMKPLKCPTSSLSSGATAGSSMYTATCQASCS

What is called AUC(0-t) is exposure summed from dosing to a finite time, without extrapolation to infinity. A word on the Cmax: it is the peak of the concentration-time curve. By clearance is commonly meant a measure of how efficiently the substance is removed, as volume per time. Low values mean inefficient removal, high ones efficient removal. In general, half-life refers to the time in which the quantity being followed falls by half. A low value points to rapid decline. As usually defined, the bioavailability is dose-corrected exposure relative to a reference, in per cent. Higher therefore signals much systemic uptake. Broadly, the EC50 is the midpoint of the concentration-response curve. Low readings indicate a more potent agent, high ones a less potent agent. On to `CC[C@H](C)[C@H](NC(=O)[C@H](Cc1ccccc1)NC(=O)[C@H](CCC(=O)O)NC(=O)C(C)(C)NC(=O)[C@H](CCC(N)=O)NC(=O)[C@H](Cc1c[nH]cn1)NC(=O)C(C)(C)NC(=O)[C@H](CCCNC(=N)N)NC(=O)[C@H](CC(=O)O)NC(=O)[C@H](CCCCNC(=O)COCCOCCNC(=O)COCCOCCNC(=O)CC[C@H](NC(=O)CCCCCCCCCCCCCCCCC(=O)O)C(=O)O)NC(=O)C(C)(C)NC(=O)[C@@H](NC(=O)[C@H](CO)NC(=O)[C@H](CC(C)C)NC(=O)[C@H](CC(=O)O)NC(=O)[C@H](CO)NC(=O)[C@@H](NC(=O)[C@H](Cc1ccccc1)NC(=O)[C@@H](NC(=O)CNC(=O)[C@H](CCC(=O)O)NC(=O)C(C)(C)NC(=O)[C@@H](N)Cc1ccc(O)cc1)[C@@H](C)O)[C@@H](C)CC)[C@@H](C)CC)C(=O)N[C@@H](CCC(=O)O)C(=O)N[C@@H](Cc1c[nH]c2ccccc12)C(=O)N[C@@H](CC(C)C)C(=O)N[C@@H](CC(C)C)C(=O)N[C@@H](C)C(=O)N[C@@H](CCC(N)=O)C(=O)N[C@@H](CCCNC(=N)N)C(=O)N1CCC[C@H]1C(=O)N[C@@H](CO)C(=O)N[C@@H](CO)C(=O)NCC(=O)N[C@@H](C)C(=O)N1CCC[C@H]1C(=O)N1CCC[C@H]1C(=O)N1CCC[C@H]1C(=O)N[C@@H](CO)C(N)=O` [SEQ ID NO: 22, H2N-Y-Aib-E-G-T-F-I-S-D-L-S-I-Aib-K[{AEEA}2-gGlu-C18OH]-D-R-Aib-H-Q-Aib-E-F-I-E-W-L-L-A-Q-R-P-S-S-G-A-P-P-P-S-NH2] (H-Y[Aib]EGTFISDLSI[Aib]K([AEEA-AEEA-γGlu-C18 diacid])DR[Aib]HQ[Aib]EFIEWLLAQRPSSGAPPPS-NH2), for which, in series [1] (iv, 0.25 mg/kg), the AUC(0-t) is 40.2 µg·h/mL, the peak concentration (Cmax) was 6.03 µg/mL, the clearance is 0.0955 mL/min/kg and the half-life is 13.6 h. Further, in series [1] (sc, 0.5 mg/kg), the AUC(0-t) was 49.9 µg·h/mL, the highest level (Cmax) was 1.32 µg/mL, the bioavailability was determined as 69% and the half-life is 15.5 h. Moreover, the “Relative purity loss over 28 days at 40° C.” value in series [2] was determined as 6.1%. In series [3], this molecule returned an EC50 of more than 10 nM.
Broadly, the solubility is how much of the substance goes into solution per volume. A higher solubility goes with much dissolved substance. For `CC[C@H](C)[C@H](NC(=O)[C@H](CCCNC(=N)N)NC(=O)[C@H](CC(=O)O)NC(=O)[C@H](CCCCNC(=O)COCCOCCNC(=O)COCCOCCNC(=O)CC[C@H](NC(=O)CCCCCCCCCCCCCCCCC(=O)O)C(=O)O)NC(=O)C(C)(C)NC(=O)[C@@H](NC(=O)[C@H](CO)NC(=O)[C@H](CC(C)C)NC(=O)[C@H](CC(=O)O)NC(=O)[C@H](CO)NC(=O)[C@@H](NC(=O)[C@@](C)(CC)NC(=O)[C@@H](NC(=O)CNC(=O)[C@H](CCC(=O)O)NC(=O)C(C)(C)NC(=O)[C@@H](N)Cc1ccc(O)cc1)[C@@H](C)O)[C@@H](C)CC)[C@@H](C)CC)C(=O)N[C@@H](Cc1c[nH]cn1)C(=O)N[C@@H](CCC(N)=O)C(=O)NC(C)(C)C(=O)N[C@@H](CCC(=O)O)C(=O)N[C@@H](Cc1ccccc1)C(=O)N[C@H](C(=O)N[C@@H](CCC(=O)O)C(=O)N[C@@H](Cc1c[nH]c2ccccc12)C(=O)N[C@@H](CC(C)C)C(=O)N[C@@H](CC(C)C)C(=O)N[C@@H](C)C(=O)N[C@@H](CCC(N)=O)C(=O)N[C@@H](CCCNC(=N)N)C(=O)NCC(N)=O)[C@@H](C)CC` [SEQ ID NO: 16, H2N-Y-Aib-E-G-T-Iva-I-S-D-L-S-I-Aib-K[{AEEA}2-gGlu-C18OH]-D-R-I-H-Q-Aib-E-F-I-E-W-L-L-A-Q-R-G-NH2], the figures for the EC50 in series [4] and in series [3] were 0.0243 nM and more than 10 nM, respectively. Besides, the AUC(0-t) in series [5] (setting [7]) was 27.3 µg·h/mL; in series [5] (setting [8]), 82.5 µg·h/mL; in series [1] (iv, 0.25 mg/kg), 41.5 µg·h/mL; in series [1] (sc, 0.5 mg/kg), 43.9 µg·h/mL. Moreover, the Cmax stood at 5.04 µg/mL in series [5] (setting [7]); 4.59 µg/mL in series [5] (setting [8]); 7.05 µg/mL in series [1] (iv, 0.25 mg/kg); 1.72 µg/mL in series [1] (sc, 0.5 mg/kg). Moreover, the clearance in series [5] (setting [7]) was 0.151 mL/min/kg; in series [1] (iv, 0.25 mg/kg) it was 0.0957 mL/min/kg. The half-life in series [5] (setting [7]) is 7.33 h; in series [5] (setting [8]), 5.69 h; in series [1] (iv, 0.25 mg/kg), 11.5 h; in series [1] (sc, 0.5 mg/kg) it was 10.8 h. Moreover, in series [5] (mouse, sc, 0.5 mg/kg), the F was found to be 150%. The molecule further returned a bioavailability in series [1] (sc, 0.5 mg/kg) of 55%. For the same molecule, the concentration in solution in series [6] (pH 7.4, Soluble amount) (solubility) was 5.4 mg/mL (≈ 1260 µM).
For `CC[C@H](C)[C@H](NC(=O)[C@H](CCCNC(=N)N)NC(=O)[C@H](CCC(=O)O)NC(=O)[C@H](CCCCNC(=O)COCCOCCNC(=O)COCCOCCNC(=O)CC[C@H](NC(=O)CCCCCCCCCCCCCCCCC(=O)O)C(=O)O)NC(=O)C(C)(C)NC(=O)[C@@H](NC(=O)[C@H](CO)NC(=O)[C@H](CC(C)C)NC(=O)[C@H](CC(=O)O)NC(=O)[C@H](CO)NC(=O)[C@@H](NC(=O)[C@H](Cc1ccccc1)NC(=O)[C@@H](NC(=O)CNC(=O)[C@H](CCC(=O)O)NC(=O)C(C)(C)NC(=O)[C@@H](N)Cc1ccc(O)cc1)[C@@H](C)O)[C@@H](C)CC)[C@@H](C)CC)C(=O)N[C@@H](Cc1c[nH]cn1)C(=O)N[C@@H](CCC(N)=O)C(=O)NC(C)(C)C(=O)N[C@@H](CCC(=O)O)C(=O)N[C@@H](Cc1ccccc1)C(=O)N[C@H](C(=O)N[C@@H](CCC(=O)O)C(=O)N[C@@H](Cc1c[nH]c2ccccc12)C(=O)N[C@@H](CC(C)C)C(=O)N[C@@H](CC(C)C)C(=O)N[C@@H](C)C(=O)N[C@@H](CCC(N)=O)C(=O)NCC(=O)N1CCC[C@H]1C(=O)N[C@@H](CO)C(=O)N[C@@H](CO)C(=O)NCC(=O)N[C@@H](C)C(=O)N1CCC[C@H]1C(=O)N1CCC[C@H]1C(=O)N1CCC[C@H]1C(=O)N[C@@H](CO)C(N)=O)[C@@H](C)CC` [SEQ ID NO: 21, H2N-Y-Aib-E-G-T-F-I-S-D-L-S-I-Aib-K[{AEEA}2-gGlu-C18OH]-E-R-I-H-Q-Aib-E-F-I-E-W-L-L-A-Q-G-P-S-S-G-A-P-P-P-S-NH2] (H-Y[Aib]EGTFISDLSI[Aib]K([AEEA-AEEA-γGlu-C18 diacid])ERIHQ[Aib]EFIEWLLAQGPSSGAPPPS-NH2), in series [1] (iv, 0.25 mg/kg), the exposure AUC(0-t) came out at 25.8 µg·h/mL, the Cmax worked out at 1.02 µg/mL, the clearance was 0.151 mL/min/kg and the half-life is 12.9 h. In series [1] (sc, 0.5 mg/kg), this molecule showed an AUC(0-t) of 33.9 µg·h/mL, a Cmax of 1.02 µg/mL, a bioavailability of 68% and a half-life of 12.1 h. This molecule yielded a Soluble amount in series [6] (24 h, pH 7.4) of more than 10.0 mg/mL. Further, the concentration in solution in series [6] (pH 7.4, Soluble amount) (solubility at 24 h) was 10.1 mg/mL (≈ 2030 µM). Also, the EC50 in series [3] was more than 10 nM.
